Data: PubChem BioAssay (NCI)
Several values for one entry are separate records, joined by “and”; a condition that tells them apart may be missing. Equal entries are not always repeated.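 Dose response: 5 concentrations. Exposure: 48 h. Format: 96-well plates. Endpoint: linear interpolation; highest concentration if not reached. TGI marks complete inhibition of growth.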

What follows are compounds tested on SK-MEL-28 melanoma (assay: inhibition of tumour cell growth, NCI panel, 48 h).

SMILES	TGI [µM]
Cn1ccnc1C(O)(c1nccn1C)c1nccn1C	> 100
CC12CCC3C(CCC4CC(OC(=O)Cc5ccc(N(CCCl)CCCl)cc5)CCC43C)C1CCC(=O)N2 (configuration not stated)	30.9
CCN(CC)CCCNC(=O)c1ccc([N+](=O)[O-])cc1O	> 100
CN(Cc1ccccc1)c1cc(=O)n(C)c(=O)[nH]1	> 100
Cc1cn([C@@H]2C[C@H](CO)[C@@H](O)C2)c(=O)[nH]c1=O	> 100
C=Cc1ccc(C)[n+](C[Si](C)(C)O[Si](C)(C)C[n+]2cc(C=C)ccc2C)c1	> 100
Oc1[nH]c2ccc(Br)cc2c1N=NC(=S)Nc1ccc(F)cc1	39.8
O=c1[nH]cnc(NC2C=C(CO)C(O)C2O)c1[N+](=O)[O-] (configuration not stated)	> 100
CCOC(=O)C1(C(=O)OCC)COS(=O)OC1	95.7
O=C(NC(COC(=O)C(Cc1ccccc1)NC(=O)c1ccccc1)Cc1ccccc1)c1ccccc1 (configuration not stated)	> 50
CC(=O)OCC1OC(n2cc(I)c(=O)[nH]c2=O)C(OC(C)=O)C(OC(C)=O)C1OC(C)=O (configuration not stated)	> 100
CC(O)CCCOC(c1ccccc1)(c1ccccc1)c1ccccc1 (configuration not stated)	30.1
Cc1ccc([N+](=O)[O-])cc1N=NC(=O)NNc1cc([N+](=O)[O-])ccc1C	87.5
CC(C(=O)N1C(=O)N(C(=O)C(C)C(O)c2ccccc2)C2CCCCC21)C(O)c1ccccc1 (configuration not stated)	> 100
O=C1NCCS(=O)(=O)N[C@@H](CC2=CC=CCC2)C(=O)N2CCCC12 (some centres not stated)	> 100
CC(C)=CCC/C(C)=C/COC(C)(C)C1=CCC(C)CC1 (configuration not stated) (tested in a mixture with another compound)	> 100
O=[N+]([O-])c1ccc(/C=C/c2cc(-c3ccccc3)nc3ccc4ccccc4c23)cc1	> 100
Cc1cc(-c2nc3ccccc3s2)ccc1NC(=O)[C@@H](N)CCCCN	31.3
CCCCn1cnc2c(c(CC#N)nn2-c2ccccc2)c1=N	> 100
COc1ccc(-c2oc(/C=N/NC(N)=S)c([N+](=O)[O-])c2-c2ccc(OC)c(OC)c2)cc1OC	86.1
CCN1CCCC(NCc2c3ccccc3c(CNC3CCCN(CC)C3)c3ccccc23)C1 (configuration not stated)	25.9
COc1c(O)c2c3c(c(C)cc(O)c3c1O)C(=O)C(O)(C(C)(C)C(C)=O)C2=O (configuration not stated)	> 100
Nc1nc(N)c(N=O)c(Nc2ccc(Br)cc2)n1	68.6
O=C(CNc1c(Cl)cccc1Cl)NC1C=Cc2ccc(S(=O)(=O)Nc3c(Cl)cccc3Cl)cc2C1=O (configuration not stated)	> 100
C[C@]12CC[C@@H]3c4ccc(O)cc4CC[C@H]3[C@@H]1C/C(=C\c1ccncc1)[C@@H]2O	> 100
S=C(/N=c1\sc(Nc2ccc(Cl)cc2)nc2sc3c(c12)CCN(N1CCc2c(sc4nc(Nc5ccc(Cl)cc5)s/c(=N\C(=S)Nc5ccc(Cl)cc5)c24)C1)C3)Nc1ccc(Cl)cc1	> 100
O=C(Oc1cc(=O)c(OC(=O)c2ccccc2)co1)c1ccccc1	> 100
CCC1=CC2CN3Cn4c(c(COCc5c6n(c7ccccc57)CN5CC7C=C(CC)C5C6(C(=O)OC)C7)c5ccccc54)C(C(=O)OC)(C2)C13	> 100
O=C(Cc1ccccc1)NN1C(=O)/C(=C\c2ccccc2)SC1=Nc1ccccc1	> 100
COc1ccc(CC2c3c(cc(OC)c(OC)c3OC)CCN2C)cc1OC (configuration not stated)	> 100

These compounds were tested on SF-539 CNS (assay: inhibition of tumour cell growth, NCI panel, 48 h).

SMILES	TGI
CC12CCC3C(CCC4CC(OC(=O)Cc5ccc(N(CCCl)CCCl)cc5)CCC43C)C1CCC(=O)N2 (configuration not stated)	29.4 µM
CCN(CC)CCCNC(=O)c1ccc([N+](=O)[O-])cc1O	> 100 µM
CN(Cc1ccccc1)c1cc(=O)n(C)c(=O)[nH]1	> 100 µM
COc1cc2c(cc1OC)[C@H]1CN3CCC[C@H]3C=C1c1ccc(OC)c(O)c1-2	0.0058 µM and 0.0358 µM
Cc1cn([C@@H]2C[C@H](CO)[C@@H](O)C2)c(=O)[nH]c1=O	> 100 µM
C=Cc1ccc(C)[n+](C[Si](C)(C)O[Si](C)(C)C[n+]2cc(C=C)ccc2C)c1	> 100 µM
Oc1[nH]c2ccc(Br)cc2c1N=NC(=S)Nc1ccc(F)cc1	38.8 µM
O=c1[nH]cnc(NC2C=C(CO)C(O)C2O)c1[N+](=O)[O-] (configuration not stated)	> 100 µM
O=C(NC(COC(=O)C(Cc1ccccc1)NC(=O)c1ccccc1)Cc1ccccc1)c1ccccc1 (configuration not stated)	> 50 µM
CC(O)CCCOC(c1ccccc1)(c1ccccc1)c1ccccc1 (configuration not stated)	31.2 µM
O=C1NCCS(=O)(=O)N[C@@H](CC2=CC=CCC2)C(=O)N2CCCC12 (some centres not stated)	> 100 µM
CC(C)=CCC/C(C)=C/COC(C)(C)C1=CCC(C)CC1 (configuration not stated) (tested in a mixture with another compound)	29.3 µM
O=[N+]([O-])c1ccc(/C=C/c2cc(-c3ccccc3)nc3ccc4ccccc4c23)cc1	> 100 µM
COc1ccc(-c2oc(/C=N/NC(N)=S)c([N+](=O)[O-])c2-c2ccc(OC)c(OC)c2)cc1OC	67.6 µM
CCN1CCCC(NCc2c3ccccc3c(CNC3CCCN(CC)C3)c3ccccc23)C1 (configuration not stated)	35.7 µM
COc1c(O)c2c3c(c(C)cc(O)c3c1O)C(=O)C(O)(C(C)(C)C(C)=O)C2=O (configuration not stated)	> 100 µM
Nc1nc(N)c(N=O)c(Nc2ccc(Br)cc2)n1	56.5 µM
O=C(CNc1c(Cl)cccc1Cl)NC1C=Cc2ccc(S(=O)(=O)Nc3c(Cl)cccc3Cl)cc2C1=O (configuration not stated)	> 100 µM
S=C(/N=c1\sc(Nc2ccc(Cl)cc2)nc2sc3c(c12)CCN(N1CCc2c(sc4nc(Nc5ccc(Cl)cc5)s/c(=N\C(=S)Nc5ccc(Cl)cc5)c24)C1)C3)Nc1ccc(Cl)cc1	35.6 µM
O=C(Oc1cc(=O)c(OC(=O)c2ccccc2)co1)c1ccccc1	> 100 µM
O=C(Cc1ccccc1)NN1C(=O)/C(=C\c2ccccc2)SC1=Nc1ccccc1	> 100 µM
COc1ccc(CC2c3c(cc(OC)c(OC)c3OC)CCN2C)cc1OC (configuration not stated)	> 100 µM

Each compound was assayed on RXF 393 renal (assay: inhibition of tumour cell growth, NCI panel, 48 h).

SMILES	TGI [µM]
Cn1ccnc1C(O)(c1nccn1C)c1nccn1C	> 100
CC12CCC3C(CCC4CC(OC(=O)Cc5ccc(N(CCCl)CCCl)cc5)CCC43C)C1CCC(=O)N2 (configuration not stated)	28
CCN(CC)CCCNC(=O)c1ccc([N+](=O)[O-])cc1O	> 100
COc1cc2c(cc1OC)[C@H]1CN3CCC[C@H]3C=C1c1ccc(OC)c(O)c1-2	0.0437
C=Cc1ccc(C)[n+](C[Si](C)(C)O[Si](C)(C)C[n+]2cc(C=C)ccc2C)c1	> 100
Oc1[nH]c2ccc(Br)cc2c1N=NC(=S)Nc1ccc(F)cc1	13.2
O=c1[nH]cnc(NC2C=C(CO)C(O)C2O)c1[N+](=O)[O-] (configuration not stated)	> 100
CCOC(=O)C1(C(=O)OCC)COS(=O)OC1	32.6
CC(=O)OCC1OC(n2cc(I)c(=O)[nH]c2=O)C(OC(C)=O)C(OC(C)=O)C1OC(C)=O (configuration not stated)	> 100
CC(O)CCCOC(c1ccccc1)(c1ccccc1)c1ccccc1 (configuration not stated)	29.2
Cc1ccc([N+](=O)[O-])cc1N=NC(=O)NNc1cc([N+](=O)[O-])ccc1C	66.6
CC(C(=O)N1C(=O)N(C(=O)C(C)C(O)c2ccccc2)C2CCCCC21)C(O)c1ccccc1 (configuration not stated)	> 100
O=C1NCCS(=O)(=O)N[C@@H](CC2=CC=CCC2)C(=O)N2CCCC12 (some centres not stated)	> 100
CC(C)=CCC/C(C)=C/COC(C)(C)C1=CCC(C)CC1 (configuration not stated) (tested in a mixture with another compound)	> 100
O=[N+]([O-])c1ccc(/C=C/c2cc(-c3ccccc3)nc3ccc4ccccc4c23)cc1	> 100
Cc1cc(-c2nc3ccccc3s2)ccc1NC(=O)[C@@H](N)CCCCN	16.5
CCCCn1cnc2c(c(CC#N)nn2-c2ccccc2)c1=N	> 100
COc1ccc(-c2oc(/C=N/NC(N)=S)c([N+](=O)[O-])c2-c2ccc(OC)c(OC)c2)cc1OC	45.6
CCN1CCCC(NCc2c3ccccc3c(CNC3CCCN(CC)C3)c3ccccc23)C1 (configuration not stated)	11.8
COc1c(O)c2c3c(c(C)cc(O)c3c1O)C(=O)C(O)(C(C)(C)C(C)=O)C2=O (configuration not stated)	> 100
C[C@]12CC[C@@H]3c4ccc(O)cc4CC[C@H]3[C@@H]1C/C(=C\c1ccncc1)[C@@H]2O	7.73
S=C(/N=c1\sc(Nc2ccc(Cl)cc2)nc2sc3c(c12)CCN(N1CCc2c(sc4nc(Nc5ccc(Cl)cc5)s/c(=N\C(=S)Nc5ccc(Cl)cc5)c24)C1)C3)Nc1ccc(Cl)cc1	36.7
O=C(Oc1cc(=O)c(OC(=O)c2ccccc2)co1)c1ccccc1	> 100
CCC1=CC2CN3Cn4c(c(COCc5c6n(c7ccccc57)CN5CC7C=C(CC)C5C6(C(=O)OC)C7)c5ccccc54)C(C(=O)OC)(C2)C13	> 100
O=C(Cc1ccccc1)NN1C(=O)/C(=C\c2ccccc2)SC1=Nc1ccccc1	> 100

The compounds below were run on UO-31 renal (assay: inhibition of tumour cell growth, NCI panel, 48 h).

SMILES	TGI [µM]
Cn1ccnc1C(O)(c1nccn1C)c1nccn1C	> 100
CC12CCC3C(CCC4CC(OC(=O)Cc5ccc(N(CCCl)CCCl)cc5)CCC43C)C1CCC(=O)N2 (configuration not stated)	33.9
CCN(CC)CCCNC(=O)c1ccc([N+](=O)[O-])cc1O	> 100
CN(Cc1ccccc1)c1cc(=O)n(C)c(=O)[nH]1	> 100
COc1cc2c(cc1OC)[C@H]1CN3CCC[C@H]3C=C1c1ccc(OC)c(O)c1-2	0.00324
Cc1cn([C@@H]2C[C@H](CO)[C@@H](O)C2)c(=O)[nH]c1=O	> 100
C=Cc1ccc(C)[n+](C[Si](C)(C)O[Si](C)(C)C[n+]2cc(C=C)ccc2C)c1	> 100
O=c1[nH]cnc(NC2C=C(CO)C(O)C2O)c1[N+](=O)[O-] (configuration not stated)	> 100
CCOC(=O)C1(C(=O)OCC)COS(=O)OC1	> 100
O=C(NC(COC(=O)C(Cc1ccccc1)NC(=O)c1ccccc1)Cc1ccccc1)c1ccccc1 (configuration not stated)	> 50
CC(=O)OCC1OC(n2cc(I)c(=O)[nH]c2=O)C(OC(C)=O)C(OC(C)=O)C1OC(C)=O (configuration not stated)	> 100
CC(O)CCCOC(c1ccccc1)(c1ccccc1)c1ccccc1 (configuration not stated)	26.7
Cc1ccc([N+](=O)[O-])cc1N=NC(=O)NNc1cc([N+](=O)[O-])ccc1C	78.9
CC(C(=O)N1C(=O)N(C(=O)C(C)C(O)c2ccccc2)C2CCCCC21)C(O)c1ccccc1 (configuration not stated)	> 100
O=C1NCCS(=O)(=O)N[C@@H](CC2=CC=CCC2)C(=O)N2CCCC12 (some centres not stated)	> 100
CC(C)=CCC/C(C)=C/COC(C)(C)C1=CCC(C)CC1 (configuration not stated) (tested in a mixture with another compound)	> 100
O=[N+]([O-])c1ccc(/C=C/c2cc(-c3ccccc3)nc3ccc4ccccc4c23)cc1	> 100
Cc1cc(-c2nc3ccccc3s2)ccc1NC(=O)[C@@H](N)CCCCN	19.3
CCCCn1cnc2c(c(CC#N)nn2-c2ccccc2)c1=N	> 100
CCN1CCCC(NCc2c3ccccc3c(CNC3CCCN(CC)C3)c3ccccc23)C1 (configuration not stated)	53.4
COc1c(O)c2c3c(c(C)cc(O)c3c1O)C(=O)C(O)(C(C)(C)C(C)=O)C2=O (configuration not stated)	> 100
O=C(CNc1c(Cl)cccc1Cl)NC1C=Cc2ccc(S(=O)(=O)Nc3c(Cl)cccc3Cl)cc2C1=O (configuration not stated)	> 100
C[C@]12CC[C@@H]3c4ccc(O)cc4CC[C@H]3[C@@H]1C/C(=C\c1ccncc1)[C@@H]2O	52.9
S=C(/N=c1\sc(Nc2ccc(Cl)cc2)nc2sc3c(c12)CCN(N1CCc2c(sc4nc(Nc5ccc(Cl)cc5)s/c(=N\C(=S)Nc5ccc(Cl)cc5)c24)C1)C3)Nc1ccc(Cl)cc1	> 100
O=C(Oc1cc(=O)c(OC(=O)c2ccccc2)co1)c1ccccc1	> 100
CCC1=CC2CN3Cn4c(c(COCc5c6n(c7ccccc57)CN5CC7C=C(CC)C5C6(C(=O)OC)C7)c5ccccc54)C(C(=O)OC)(C2)C13	> 100
O=C(Cc1ccccc1)NN1C(=O)/C(=C\c2ccccc2)SC1=Nc1ccccc1	> 100
COc1ccc(CC2c3c(cc(OC)c(OC)c3OC)CCN2C)cc1OC (configuration not stated)	> 100

What follows are compounds tested on 786-0 renal (assay: inhibition of tumour cell growth, NCI panel, 48 h).

SMILES	TGI [µM]
CC12CCC3C(CCC4CC(OC(=O)Cc5ccc(N(CCCl)CCCl)cc5)CCC43C)C1CCC(=O)N2 (configuration not stated)	28.8
CCN(CC)CCCNC(=O)c1ccc([N+](=O)[O-])cc1O	> 100
